US20210403567A1, “METHODS OF TREATING CERVICAL CANCER BY ADMINISTERING A PD-1 INHIBITOR” (priority 2020, published 2021)
“Also recorded” adds a separate entry of the source. Marks after values point to notes of the source that are not given here.

Tested on: recurrent or metastatic cervical cancer
Test: Phase 3 trial, cemiplimab versus IC chemotherapy: quality of life, EORTC QLQ-C30 (GHS/QoL, functioning and symptom scales), MMRM LS mean change from baseline
Format: in vivo, human
Details: for Overall difference in LS mean change from baseline (95% CI), GHS/QoL / Overall difference in LS mean change from baseline (95% CI), Physical functioning / Overall difference in LS mean change from baseline (95% CI), Role functioning / Overall difference in LS mean change from baseline (95% CI), Appetite loss / Overall difference in LS mean change from baseline (95% CI), Fatigue / Overall difference in LS mean change from baseline (95% CI), Pain: cemiplimab minus chemotherapy; for Overall difference in LS mean change from baseline (95% CI), GHS/QoL / Overall difference in LS mean change from baseline (95% CI), Physical functioning / Overall difference in LS mean change from baseline (95% CI), Role functioning: positive numbers favor cemiplimab; for Overall difference in LS mean change from baseline (95% CI), Appetite loss / Overall difference in LS mean change from baseline (95% CI), Fatigue / Overall difference in LS mean change from baseline (95% CI), Pain: EORTC QLQ-C30 symptom scale, negative numbers favor cemiplimab
Description: QOL is measured by the EORTC QLQ-C30.
Quality of Life Questionnaires: Patient-reported outcomes are measured using the validated patient self-administered EORTC QLQ-C30 questionnaire. Patients are asked to complete these questionnaires prior to any study procedures being performed at a given study visit (during the on-study/treatment and follow-up periods).
QoL: Longitudinal change from baseline at each PRO assessment in the GHS/QoL and PF scales was analyzed using a mixed model with repeated measures (MMRM). Higher scores on these scales indicate better health status/function. […] The model generated least squares (LS) mean estimates, standard errors, 95% CIs and p-values (where applicable) for mean changes from baseline on each PRO assessment.
At baseline and Day 1 of each treatment cycle (up to 16), patients were administered the EORTC QLQ-030. Mixed-effects repeated measures models estimated least squares (LS) mean change from baseline across all scales. Responder analyses determined the proportions with clinically meaningful (using 10-point threshold) improvement or deterioration, or stability on QLQ-030.

[1] = EORTC QLQ-C30, Overall population
[2] = SCC patients, Overall Across Cycles
[3] = overall population, Overall Across Cycles

## cemiplimab
EORTC QLQ-C30, AC (post-hoc)
  Overall difference in LS mean change from baseline (95% CI), GHS/QoL: 2.0 (−5.4; 9.3)
  Overall difference in LS mean change from baseline (95% CI), Physical functioning: 2.6 (−4.3; 9.5)
  Overall difference in LS mean change from baseline (95% CI), Role functioning: 8.3 (−0.0; 16.6)
[1]
  Overall difference in LS mean change from baseline (95% CI), GHS/QoL: 7.8 (3.3; 12.3)*
  Overall difference in LS mean change from baseline (95% CI), Physical functioning: 8.3 (4.3; 12.2)*
  Overall difference in LS mean change from baseline (95% CI), Role functioning: 13.1 (8.3; 17.9)^‡
EORTC QLQ-C30, SCC
  Overall difference in LS mean change from baseline (95% CI), GHS/QoL: 8.5 (3.8; 13.2)^†
  Overall difference in LS mean change from baseline (95% CI), Physical functioning: 8.4 (4.1; 12.6)^†
  Overall difference in LS mean change from baseline (95% CI), Role functioning: 11.4 (6.3; 16.6)^‡
AC (post-hoc)
  Overall difference in LS mean change from baseline (95% CI), Appetite loss: −5.9 (−19.8; 2.4)
  Overall difference in LS mean change from baseline (95% CI), Fatigue: −5.9 (−13.9; 2.2)
  Overall difference in LS mean change from baseline (95% CI), Pain: −7.6 (−17.1; 1.9)
Overall population
  Overall difference in LS mean change from baseline (95% CI), Appetite loss: −11.3 (−16.6; −6.0)^‡
  Overall difference in LS mean change from baseline (95% CI), Fatigue: −9.1 (−14.1; −4.0)^‡
  Overall difference in LS mean change from baseline (95% CI), Pain: −10.2 (−16.2; −4.3)^‡
SCC
  Overall difference in LS mean change from baseline (95% CI), Appetite loss: −10.9 (−16.6; −5.2)^‡
  Overall difference in LS mean change from baseline (95% CI), Fatigue: −8.6 (−14.0; −3.3)^‡
  Overall difference in LS mean change from baseline (95% CI), Pain: −10.4 (−16.9; −3.8)^‡
SCC patients, C2D1
  Difference in LS mean change, Cemiplimab versus Chemotherapy, GHS/QoL: 4.14
  Difference in LS mean change, Cemiplimab versus Chemotherapy, Physical Functioning: 4.09
  LS mean change from baseline, EORTC QLQ-C30 GHS/QoL: −2.02
  LS mean change from baseline, EORTC QLQ-C30 Physical Functioning: −1.82
SCC patients, C3D1
  Difference in LS mean change, Cemiplimab versus Chemotherapy, GHS/QoL: 9.41
  Difference in LS mean change, Cemiplimab versus Chemotherapy, Physical Functioning: 7.33
  LS mean change from baseline, EORTC QLQ-C30 GHS/QoL: 1.18
  LS mean change from baseline, EORTC QLQ-C30 Physical Functioning: 2.10
SCC patients, C4D1
  Difference in LS mean change, Cemiplimab versus Chemotherapy, GHS/QoL: 12.36
  Difference in LS mean change, Cemiplimab versus Chemotherapy, Physical Functioning: 10.41
  LS mean change from baseline, EORTC QLQ-C30 GHS/QoL: 5.15
  LS mean change from baseline, EORTC QLQ-C30 Physical Functioning: 5.21
SCC patients, C5D1
  Difference in LS mean change, Cemiplimab versus Chemotherapy, GHS/QoL: 6.94
  Difference in LS mean change, Cemiplimab versus Chemotherapy, Physical Functioning: 6.86
  LS mean change from baseline, EORTC QLQ-C30 GHS/QoL: 0.85
  LS mean change from baseline, EORTC QLQ-C30 Physical Functioning: −0.17
SCC patients, C6D1
  Difference in LS mean change, Cemiplimab versus Chemotherapy, GHS/QoL: 6.83
  Difference in LS mean change, Cemiplimab versus Chemotherapy, Physical Functioning: 7.11
  LS mean change from baseline, EORTC QLQ-C30 GHS/QoL: −0.17
  LS mean change from baseline, EORTC QLQ-C30 Physical Functioning: 0.82
SCC patients, C7D1
  Difference in LS mean change, Cemiplimab versus Chemotherapy, GHS/QoL: 11.25
  Difference in LS mean change, Cemiplimab versus Chemotherapy, Physical Functioning: 14.30
  LS mean change from baseline, EORTC QLQ-C30 GHS/QoL: 2.09
  LS mean change from baseline, EORTC QLQ-C30 Physical Functioning: −0.07
[2]
  Difference in LS mean change, Cemiplimab versus Chemotherapy, GHS/QoL: 8.49
  Difference in LS mean change, Cemiplimab versus Chemotherapy, Physical Functioning: 8.35
  LS mean change from baseline, EORTC QLQ-C30 GHS/QoL: 1.18
  LS mean change from baseline, EORTC QLQ-C30 Physical Functioning: 1.01
Overall population, C2D1
  Difference in LS mean change, Cemiplimab versus Chemotherapy, GHS/QoL: 3.25
  LS mean change from baseline, EORTC QLQ-C30 GHS/QoL: −1.03
  LS mean change from baseline, EORTC QLQ-C30 Physical Functioning: −2.41
Overall population, C3D1
  Difference in LS mean change, Cemiplimab versus Chemotherapy, GHS/QoL: 7.41
  Difference in LS mean change, Cemiplimab versus Chemotherapy, Physical Functioning: 6.02
  LS mean change from baseline, EORTC QLQ-C30 GHS/QoL: 1.19
  LS mean change from baseline, EORTC QLQ-C30 Physical Functioning: 0.49
Overall population, C4D1
  Difference in LS mean change, Cemiplimab versus Chemotherapy, GHS/QoL: 10.55
  Difference in LS mean change, Cemiplimab versus Chemotherapy, Physical Functioning: 932
  LS mean change from baseline, EORTC QLQ-C30 GHS/QoL: 4.47
  LS mean change from baseline, EORTC QLQ-C30 Physical Functioning: 2.38
Overall population, C5D1
  Difference in LS mean change, Cemiplimab versus Chemotherapy, GHS/QoL: 5.66
  Difference in LS mean change, Cemiplimab versus Chemotherapy, Physical Functioning: 6.74
  LS mean change from baseline, EORTC QLQ-C30 GHS/QoL: 0.48
  LS mean change from baseline, EORTC QLQ-C30 Physical Functioning: −1.27
Overall population, C6D1
  Difference in LS mean change, Cemiplimab versus Chemotherapy, GHS/QoL: 5.44
  Difference in LS mean change, Cemiplimab versus Chemotherapy, Physical Functioning: 6.93
  LS mean change from baseline, EORTC QLQ-C30 GHS/QoL: −0.29
  LS mean change from baseline, EORTC QLQ-C30 Physical Functioning: −1.34
Overall population, C7D1
  Difference in LS mean change, Cemiplimab versus Chemotherapy, GHS/QoL: 8.30
  Difference in LS mean change, Cemiplimab versus Chemotherapy, Physical Functioning: 11.66
  LS mean change from baseline, EORTC QLQ-C30 GHS/QoL: 3.32
  LS mean change from baseline, EORTC QLQ-C30 Physical Functioning: −0.10
Overall population, C8D1
  Difference in LS mean change, Cemiplimab versus Chemotherapy, GHS/QoL: 14.08
  Difference in LS mean change, Cemiplimab versus Chemotherapy, Physical Functioning: 12.96
  LS mean change from baseline, EORTC QLQ-C30 GHS/QoL: −1.09
  LS mean change from baseline, EORTC QLQ-C30 Physical Functioning: −0.89
Overall population, EORTC QLQ-C30
  course of GHS/QoL from baseline: improved or maintained GHS/QoL from baseline; also recorded: generally improve or maintain their baseline GHS/QOL
[3]
  Difference in LS mean change, Cemiplimab versus Chemotherapy, GHS/QoL: 7.81
  Difference in LS mean change, Cemiplimab versus Chemotherapy, Physical Functioning: 8.26
  LS mean change from baseline, EORTC QLQ-C30 GHS/QoL: 1.01
  LS mean change from baseline, EORTC QLQ-C30 Physical Functioning: −0.45
